Article PMC3509056 (The FASEB Journal, 2012)
Changes are numbered by the printed parent chain.

Experiments:
hFFA2 [1] = molecular target: T1, hFFA2 (Homo sapiens, UniProt O15552, C141G/H242Q); assay: […]GTPγS incorporation, membranes; type: biochemical
T1 sequence (O15552 1-330 C141G/H242Q): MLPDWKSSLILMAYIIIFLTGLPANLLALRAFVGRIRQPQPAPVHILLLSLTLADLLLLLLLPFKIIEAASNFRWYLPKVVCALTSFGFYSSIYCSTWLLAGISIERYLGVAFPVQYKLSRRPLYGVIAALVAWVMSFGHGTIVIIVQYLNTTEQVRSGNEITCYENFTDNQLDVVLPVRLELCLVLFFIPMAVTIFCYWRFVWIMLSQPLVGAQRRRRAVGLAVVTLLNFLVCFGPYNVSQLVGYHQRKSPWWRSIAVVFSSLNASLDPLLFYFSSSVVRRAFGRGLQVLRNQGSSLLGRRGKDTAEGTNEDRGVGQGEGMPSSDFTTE

hFFA2 [2] = molecular target: T2, hFFA2 (Homo sapiens, UniProt O15552, C141G); assay: beta-arrestin-2 BRET recruitment; type: cell-based
T2 sequence (O15552 1-330 C141G): T1 sequence (O15552 1-330 C141G/H242Q) with Q242H

hFFA2 [3] = molecular target: T3, hFFA2 (Homo sapiens, UniProt O15552); assay: beta-arrestin-2 BRET recruitment; type: cell-based
T3 sequence (O15552 1-330): T1 sequence (O15552 1-330 C141G/H242Q) with G141C, Q242H

bFFA2 = molecular target: T4, bFFA2 (Bos taurus, UniProt A0ACM8QIU6); assay: beta-arrestin-2 BRET recruitment; type: cell-based
T4 sequence (A0ACM8QIU6 1-329): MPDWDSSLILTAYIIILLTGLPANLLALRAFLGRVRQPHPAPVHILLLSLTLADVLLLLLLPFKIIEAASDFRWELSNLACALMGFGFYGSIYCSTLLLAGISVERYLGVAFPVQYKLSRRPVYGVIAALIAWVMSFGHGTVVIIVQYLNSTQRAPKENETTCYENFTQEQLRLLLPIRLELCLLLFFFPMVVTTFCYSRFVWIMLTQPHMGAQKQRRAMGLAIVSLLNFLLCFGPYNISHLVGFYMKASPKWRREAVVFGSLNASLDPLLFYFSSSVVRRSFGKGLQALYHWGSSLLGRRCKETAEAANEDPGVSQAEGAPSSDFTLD

bFFA3 = molecular target: T5, bFFA3 (Bos taurus, UniProt A0ACM8QIV1); assay: […]GTPγS incorporation, membranes; type: biochemical
T5 sequence (A0ACM8QIV1 1-326): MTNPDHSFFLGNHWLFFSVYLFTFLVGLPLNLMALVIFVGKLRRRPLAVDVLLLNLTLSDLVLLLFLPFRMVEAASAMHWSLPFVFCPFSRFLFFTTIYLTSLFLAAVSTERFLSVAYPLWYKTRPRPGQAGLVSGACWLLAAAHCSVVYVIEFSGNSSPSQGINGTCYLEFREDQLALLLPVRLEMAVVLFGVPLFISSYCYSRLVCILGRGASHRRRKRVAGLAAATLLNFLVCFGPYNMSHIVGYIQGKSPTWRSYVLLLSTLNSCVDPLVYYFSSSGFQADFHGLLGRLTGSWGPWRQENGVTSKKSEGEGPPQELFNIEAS

hFFA3 = molecular target: T6, hFFA3 (Homo sapiens, UniProt O14843); assay: […]GTPγS incorporation, membranes; type: biochemical
T6 sequence (O14843 1-346): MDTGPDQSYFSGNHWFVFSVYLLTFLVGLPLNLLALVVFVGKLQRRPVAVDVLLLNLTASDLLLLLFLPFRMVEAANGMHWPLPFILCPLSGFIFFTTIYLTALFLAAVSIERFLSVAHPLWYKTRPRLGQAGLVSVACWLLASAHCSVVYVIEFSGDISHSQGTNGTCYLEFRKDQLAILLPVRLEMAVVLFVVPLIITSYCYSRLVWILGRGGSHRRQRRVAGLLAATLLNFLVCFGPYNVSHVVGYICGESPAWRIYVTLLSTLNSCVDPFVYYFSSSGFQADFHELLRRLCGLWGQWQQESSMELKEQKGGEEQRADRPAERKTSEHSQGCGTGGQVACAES

## C/C=C/C=C/C(=O)O [compound 25, 2,4-hexadienoic acid]
hFFA2 [1]
  EC50: 3.47 µM
hFFA2 [2]
  EC50: 4.57 µM
hFFA2 [3]
  EC50: > 10000 µM
bFFA2
  EC50: 4.27 µM

## CCCCCC(=O)O [C6, caproic acid]
hFFA2 [2]
  EC50: 24 µM
hFFA2 [3]
  EC50: > 10000 µM
bFFA3
  EC50: 126 µM
hFFA3
  EC50: 204 µM
bFFA2
  EC50: 20.9 µM

## CC(=O)O [C2, acetic acid]
hFFA2 [3]
  EC50: 1000 µM
bFFA3
  EC50: 4370 µM
hFFA3
  EC50: 7590 µM
bFFA2
  EC50: 2040 µM

## O=C(O)C1=CCCC1 [compound 27, 1-cyclopentenecarboxylic acid]
hFFA2 [2]
  EC50: 83.2 µM
hFFA2 [3]
  EC50: > 10000 µM
bFFA2
  EC50: 11 µM

## O=C(O)C1=CCCCC1 [compound 29, 1-cyclohexene-1-carboxylic acid]
hFFA2 [2]
  EC50: 158 µM
hFFA2 [3]
  EC50: > 10000 µM
bFFA2
  EC50: 60.3 µM

## CC/C=C/C(=O)O [compound 22, trans-2-pentenoic acid]
hFFA2 [2]
  EC50: 33.1 µM
bFFA2
  EC50: 5.25 µM

## CCCCCCCC(=O)O [C8, caprylic acid]
hFFA2 [2]
  EC50: 1070 µM
hFFA2 [3]
  EC50: > 10000 µM
bFFA3
  EC50: > 10000 µM
hFFA3
  EC50: > 10000 µM
bFFA2
  EC50: 617 µM

## O=CO [C1, formic acid]
hFFA2 [3]
  EC50: 2510 µM
bFFA3
  EC50: > 10000 µM
hFFA3
  EC50: > 10000 µM
bFFA2
  EC50: > 10000 µM

## C=CC=CC(=O)O [compound 24, 2,4-pentadienoic acid]
hFFA2 [2]
  EC50: 22.9 µM
bFFA2
  EC50: 10 µM

## CCCC(=O)O [C4, butyric acid]
hFFA2 [3]
  EC50: 1480 µM
bFFA3
  EC50: 263 µM
hFFA3
  EC50: 251 µM
bFFA2
  EC50: 69.2 µM

## CCC(=O)O [C3, propionic acid]
bFFA3
  EC50: 155 µM
hFFA3
  EC50: 200 µM
bFFA2
  EC50: 347 ± 7.01 µM

## CCCCCCCCC(=O)O [C9, pelargonic acid]
hFFA2 [3]
  EC50: > 10000 µM
bFFA3
  EC50: > 10000 µM
hFFA3
  EC50: > 10000 µM
bFFA2
  EC50: 3390 µM

## CCC/C=C/C(=O)O [compound 23, trans-2-hexenoic acid]
hFFA2 [2]
  EC50: 3.24 µM
hFFA2 [3]
  EC50: > 10000 µM
bFFA2
  EC50: 3.98 µM

## CC(=CC(=O)O)C(F)(F)F [compound 26, 4,4,4-trifluoro-3-methyl-2-butenoic acid]
hFFA2 [2]
  EC50: 257 µM
hFFA2 [3]
  EC50: > 10000 µM
bFFA2
  EC50: 12.9 µM

## CCCCC(=O)O [C5, valeric acid]
hFFA2 [3]
  EC50: 7080 µM
bFFA3
  EC50: 123 µM
hFFA3
  EC50: 36.3 µM
bFFA2
  EC50: 42.7 µM

## O=C(O)/C=C/c1ccccc1 [compound 28, trans-cinnamic acid]
hFFA2 [2]
  EC50: 389 µM
hFFA2 [3]
  EC50: > 10000 µM
bFFA2
  EC50: 174 µM

## CCCCCCC(=O)O [C7, heptanoic acid]
hFFA2 [2]
  EC50: 105 µM
hFFA2 [3]
  EC50: > 10000 µM
bFFA3
  EC50: 158 µM
hFFA3
  EC50: 69.2 µM
bFFA2
  EC50: 155 µM
